{"source": "paper PMC10289985", "about": "“Brigatinib pharmacokinetics in patients with chronic hepatic impairment” (Investigational New Drugs, 2023)", "origin": "cited, not measured here", "key": {"[1]": {"design": "method as in ref 26 = [26]; 26. Zykadia [package insert] (2021) Novartis Pharmaceuticals Corporation, East Hanover, NJ", "conditions": "cited from earlier work"}, "[2]": {"design": "method as in PMID 29468455", "conditions": "patients with moderate or severe hepatic impairment; cited from earlier work"}, "[3]": {"design": "method as in PMID 30052269", "conditions": "cited from earlier work"}}, "note": "Read-outs that look alike come from different tables or passages of the source.", "data": [{"smiles": "Cc1cc(Nc2ncc(Cl)c(Nc3ccccc3S(=O)(=O)C(C)C)n2)c(OC(C)C)cc1C1CCNCC1", "note": "[ceritinib]", "values": [{"measurement": "systemic exposures compared with healthy participants", "setting": "[1]; mild and moderate hepatic impairment", "result": "similar"}, {"measurement": "increase of unbound systemic exposure (AUC)", "setting": "[1]; severe hepatic impairment", "result": 108, "unit": "%"}]}, {"smiles": "C[C@@H](Oc1cc(-c2cnn(C3CCNCC3)c2)cnc1N)c1c(Cl)ccc(F)c1Cl", "note": "[crizotinib]", "values": [{"measurement": "change of concentrations in hepatic impairment", "setting": "[2]", "result": "increased"}]}, {"smiles": "CCc1cc2c(cc1N1CCC(N3CCOCC3)CC1)C(C)(C)c1[nH]c3cc(C#N)ccc3c1C2=O", "note": "[alectinib]", "values": [{"measurement": "increase of combined systemic exposures (AUC) of alectinib and its M4 metabolite", "setting": "[3]; moderate hepatic impairment vs matched healthy participants", "result": 36, "unit": "%"}, {"measurement": "increase of combined systemic exposures (AUC) of alectinib and its M4 metabolite", "setting": "[3]; severe hepatic impairment vs matched healthy participants", "result": 76, "unit": "%"}]}]}
